Experimental data: patent US12275733B2, “Substituted pyrido[3,4-b]indoles for the treatment of cartilage disorders” (Sanofi, priority 2016, dated 2025)

Tested on: ATDC5 cells
Test: Chondrogenesis activity assay in ATDC5 cells (collagen type II induction, immunofluorescence)
Type: cell-based, mouse
Conditions: Mus musculus; for EC50: collagen type II induction in ATDC5 cells, concentration reaching 50% of maximum induction; for Emax: maximum percent induction of collagen type II relative to internal reference compound at 10 μM, ATDC5 cells
Procedure, shortened: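 Collagen type II was stained in fixed, permeabilized cells with an Alexa Fluor 488 secondary and measured by high-content fluorescence imaging. ATDC5 cells had 4 days at 37 °C in insulin-supplemented differentiation medium with compound, typically 40 nM–10 μM, 0.1% DMSO. DMSO wells and a 10 μM internal reference compound were used for normalization.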

Compound | EC50 | Emax
Cc1nc(Cl)ccc1-c1cc(Cl)cc2c3ccncc3n(CC(F)(F)F)c12 [Example 83, 6-Chloro-8-(6-chloro-2-methyl-pyridin-3-yl)-9-(2,2,2-trifluoro-ethyl)-9H-pyrido[3,4-b]indole] | 2100 nM | 20 to 50%
FC(F)(F)Cn1c2cnccc2c2cc(Cl)cc(-c3cc(-c4ccccc4)no3)c21 [Example 136, 6-Chloro-8-(3-phenyl-isoxazol-5-yl)-9-(2,2,2-trifluoro-ethyl)-9H-pyrido[3,4-b]indole] | 4100 nM | 50 to 80%
Cc1nccc2c1[nH]c1c(-c3ccc(Oc4ncc(Br)cn4)cc3)cc(Cl)cc12 [Example 268, 8-[4-(5-Bromo-pyrimidin-2-yloxy)-phenyl]-6-chloro-1-methyl-9H-pyrido[3,4-b]indole] | 340 nM | > 80%
CC#CCn1c2cnccc2c2cc(Cl)cc(-c3ccc(Cl)nc3)c21 [Example 90, 9-But-2-ynyl-6-chloro-8-(6-chloro-pyridin-3-yl)-9H-pyrido[3,4-b]indole] | > 10000 nM | < 20%
COc1ccc(-c2cc(Cl)cc3c2[nH]c2c(C)nccc23)cc1OCc1ccccc1 [Example 185, 8-(3-Benzyloxy-4-methoxy-phenyl)-6-chloro-1-methyl-9H-pyrido[3,4-b]indole] | > 10000 nM | 20 to 50%
CC(C)Cn1cc(-c2cc(Cl)cc3c4ccncc4n(CC(F)(F)F)c23)cn1 [Example 137, 6-Chloro-8-(1-isobutyl-1H-pyrazol-4-yl)-9-(2,2,2-trifluoro-ethyl)-9H-pyrido[3,4-b]indole] | 1400 nM | 20 to 50%
COc1ccc(-c2cc(Cl)cc3c4ccnc(C)c4n(C)c23)nc1N [Example 240, 6-(6-Chloro-1,9-dimethyl-9H-pyrido[3,4-b]indol-8-yl)-3-methoxy-pyridin-2-ylamine] | 490 nM | 50 to 80%
FC(F)(F)Cn1c2cnccc2c2cc(Cl)cc(-c3cnccc3Cl)c21 [Example 69, 6-Chloro-8-(4-chloro-pyridin-3-yl)-9-(2,2,2-trifluoro-ethyl)-9H-pyrido[3,4-b]indole] | 2000 nM | 50 to 80%
CCOC(=O)c1ccc2[nH]c(-c3cc(Cl)cc4c3[nH]c3c(C)nccc34)cc2c1 [Example 203, 2-(6-Chloro-1-methyl-9H-pyrido[3,4-b]indol-8-yl)-1H-indole-5-carboxylic acid ethyl ester] | > 10000 nM | < 20%
CCn1c2c(-c3ccc(Cl)cc3)cc(Cl)cc2c2ccnc(C)c21 [Example 148, 6-Chloro-8-(4-chloro-phenyl)-9-ethyl-1-methyl-9H-pyrido[3,4-b]indole] | 46 nM | > 80%
Cc1nccc2c1[nH]c1c(-c3cnc(-n4cccc4)nc3)cc(Cl)cc12 [Example 156, 6-Chloro-1-methyl-8-(2-pyrrol-1-yl-pyrimidin-5-yl)-9H-pyrido[3,4-b]indole] | 1500 nM | < 20%
CCOc1ccc(-c2cc(Cl)cc3c2[nH]c2c(C)nccc23)cc1 [Example 192, 6-Chloro-8-(4-ethoxy-phenyl)-1-methyl-9H-pyrido[3,4-b]indole] | 640 nM | > 80%
CCn1c2c(-c3cccc(N4CCOCC4)c3)cc(Cl)cc2c2ccnc(C)c21 [Example 253, 6-Chloro-9-ethyl-1-methyl-8-(3-morpholin-4-yl-phenyl)-9H-pyrido[3,4-b]indole] | > 10000 nM | 20 to 50%
CCn1c2c(-c3ccc(OCC4(C)COC4)cc3)cc(Br)cc2c2ccnc(C)c21 [Example 257, 6-Bromo-9-ethyl-1-methyl-8-[4-(3-methyl-oxetan-3-ylmethoxy)-phenyl]-9H-pyrido[3,4-b]indole] | 310 nM | > 80%
Cc1nccc2c1[nH]c1c(-c3ccncc3)cc(Cl)cc12 [Example 130, 6-Chloro-1-methyl-8-pyridin-4-yl-9H-pyrido[3,4-b]indole] | 380 nM | > 80%
Cc1nccc2c1[nH]c1c(-c3ccc(OCCc4ccccc4)cc3)cc(Cl)cc12 [Example 231, 6-Chloro-1-methyl-8-(4-phenethyloxy-phenyl)-9H-pyrido[3,4-b]indole] | > 10000 nM | 20 to 50%
Cc1nccc2c3cc(Cl)cc(-c4ccc(Cl)cc4Cl)c3n(CC3CC3)c12 [Example 282, 6-Chloro-9-cyclopropylmethyl-8-(2,4-dichloro-phenyl)-1-methyl-9H-pyrido[3,4-b]indole] | 3600 nM | < 20%
Cc1nccc2c3cc(Cl)cc(-c4cnc(N(C)C)nc4)c3n(CC3CC3)c12 [Example 286, [5-(6-Chloro-9-cyclopropylmethyl-1-methyl-9H-pyrido[3,4-b]indol-8-yl)-pyrimidin-2-yl]-dimethyl-amine] | 41 nM | < 20%
CCn1c2cnccc2c2cc(Cl)cc(-c3cccnc3)c21 [Example 1, 6-Chloro-9-ethyl-8-pyridin-3-yl-9H-pyrido[3,4-b]indole] | 1700 nM | < 20%

Compound | EC50 | Emax
Cc1nc(Br)cc2c1[nH]c1c(-c3ccc(OCCn4cc(Br)cn4)cc3)cc(Cl)cc12 [Example 43, 3-Bromo-8-(4-[2-(4-bromo-pyrazol-1-yl)-ethoxy]-phenyl)-6-chloro-1-methyl-9H-pyrido[3,4-b]indole] | > 6600 nM | < 20%
Cc1nccc2c1[nH]c1c(-c3ccc(Cl)nc3Cl)cc(Br)cc12 [Example 98, 6-Bromo-8-(2,6-dichloro-pyridin-3-yl)-1-methyl-9H-pyrido[3,4-b]indole] | 2400 nM | > 80%
FC(F)(F)Cn1c2cnccc2c2cc(Cl)cc(-c3cnn(Cc4cccs4)c3)c21 [Example 166, 6-Chloro-8-(1-thiophen-2-ylmethyl-1H-pyrazol-4-yl)-9-(2,2,2-trifluoro-ethyl)-9H-pyrido[3,4-b]indole] | 840 nM | > 80%
Cc1ccc(-c2cc(Cl)cc3c2[nH]c2c(C)nccc23)cc1 [Example 150, 6-Chloro-1-methyl-8-p-tolyl-9H-pyrido[3,4-b]indole] | 510 nM | > 80%
CC#CCn1c2cnccc2c2cc(Cl)cc(-c3ccc(Cl)nc3Cl)c21 [Example 3, 9-(But-2-ynyl)-6-chloro-8-(2,6-dichloropyridin-3-yl)-9H-pyrido[3,4-b]indole] | > 10000 nM | 20 to 50%
Cc1nccc2c1[nH]c1c(-c3ccc(C=O)cc3)cc(Cl)cc12 [Example 31, 4-(6-Chloro-1-methyl-9H-pyrido[3,4-b]indol-8-yl)-benzaldehyde] | 250 nM | > 80%
Cc1nccc2c3cc(Cl)cc(-c4cnn(C)c4)c3n(C)c12 [Example 25, 6-Chloro-1,9-dimethyl-8-(1-methyl-1H-pyrazol-4-yl)-9H-pyrido[3,4-b]indole] | 170 nM | > 80%
CCn1c2c(-c3cnn(C)c3)cc(Cl)cc2c2ccnc(C)c21 [Example 164, 6-Chloro-9-ethyl-1-methyl-8-(1-methyl-1H-pyrazol-4-yl)-9H-pyrido[3,4-b]indole] | 230 nM | > 80%
CCc1nccc2c1[nH]c1c(-c3ccc(Cl)nc3Cl)cc(Cl)cc12 [Example 105, 6-Chloro-8-(2,6-dichloro-pyridin-3-yl)-1-ethyl-9H-pyrido[3,4-b]indole] | 1000 nM | 50 to 80%
CCn1c2c(-c3cnn(Cc4ccccc4)c3)cc(Cl)cc2c2ccnc(C)c21 [Example 207, 8-(1-Benzyl-1H-pyrazol-4-yl)-6-chloro-9-ethyl-1-methyl-9H-pyrido[3,4-b]indole] | 1600 nM | > 80%
Cc1nccc2c3cc(Cl)cc(-c4ccc(Cl)nc4Cl)c3n(CC3CC3)c12 [Example 285, 6-Chloro-9-cyclopropylmethyl-8-(2,6-dichloro-pyridin-3-yl)-1-methyl-9H-pyrido[3,4-b]indole] | 6100 nM | 20 to 50%
COc1ccc(-c2cc(Cl)cc3c2[nH]c2c(C)nccc23)c(C)c1C [Example 187, 6-Chloro-8-(4-methoxy-2,3-dimethyl-phenyl)-1-methyl-9H-pyrido[3,4-b]indole] | 2200 nM | > 80%
FC(F)(F)Cn1c2cnccc2c2cc(Cl)cc(-c3ccc(Cl)s3)c21 [Example 134, 6-Chloro-8-(5-chloro-thiophen-2-yl)-9-(2,2,2-trifluoro-ethyl)-9H-pyrido[3,4-b]indole] | > 10000 nM | < 20%
FC(F)(F)Cn1c2cnccc2c2cc(Cl)cc(-c3ccc(N4CCOCC4)nc3)c21 [Example 86, 6-Chloro-8-(6-morpholin-4-yl-pyridin-3-yl)-9-(2,2,2-trifluoro-ethyl)-9H-pyrido[3,4-b]indole] | 750 nM | > 80%
FC(F)(F)Cn1c2cnccc2c2cc(Cl)cc(-c3cnn(Cc4ccccc4)c3)c21 [Example 162, 8-(1-Benzyl-1H-pyrazol-4-yl)-6-chloro-9-(2,2,2-trifluoro-ethyl)-9H-pyrido[3,4-b]indole] | 590 nM | > 80%
CCn1c2c(-c3cnn(Cc4ccccc4)c3)cc(Br)cc2c2ccnc(C)c21 [Example 208, 8-(1-Benzyl-1H-pyrazol-4-yl)-6-bromo-9-ethyl-1-methyl-9H-pyrido[3,4-b]indole] | 1900 nM | > 80%
Clc1cc(-c2ccc(Cl)nc2)c2c(c1)c1ccncc1n2CC1CCC1 [Example 279, 6-Chloro-8-(6-chloro-pyridin-3-yl)-9-cyclobutylmethyl-9H-pyrido[3,4-b]indole] | 1800 nM | 20 to 50%
CC(C)c1nccc2c1[nH]c1c(-c3ccc(Cl)nc3Cl)cc(Cl)cc12 [Example 106, 6-Chloro-8-(2,6-dichloro-pyridin-3-yl)-1-isopropyl-9H-pyrido[3,4-b]indole] | > 10000 nM | 20 to 50%
CCn1c2c(-c3cc(-c4ccccc4)no3)cc(Cl)cc2c2ccnc(C)c21 [Example 18, 6-Chloro-9-ethyl-1-methyl-8-[3-phenyl-isoxazol-5-yl)-9H-pyrido[3,4-b]indole] | 1000 nM | > 80%
